# Measured values as given in US8993562B2, “Imidazo[1,2-b]pyridazines, processes, uses, intermediates and compositions” (Ferrer Internacional, S.A., priority 2006, dated 2015).
# Test system: male CD1 mice
# Assay: In vivo predictive sedation-hypnosis test (traveled distance)
# Conditions: Mus musculus, ip, 0.5 h, traveled distance over 30 min versus control, read-out: % inhib motor activity; for inhibition in vivo at 0.98 µmol/kg: 0.98 μmol/kg intraperitoneal; for inhibition in vivo at 98 µmol/kg: 98.0 μmol/kg intraperitoneal
# Method: b) In Vivo Determination of Predictive Sedative-hypnotic Action
# The in vivo effects of these compounds were assessed by a predictive sedation-hypnosis test in mice (D. J. Sanger et al., Eur. J. Pharmacol., 313, 35-42, 1996; and G. Griebel et al., Psychopharmacology, 146, 205-213, 1999).
# Groups of 5-8 male CD1 mice, weighing 22-26 g at the time of test, were used. […] Compounds were suspended in 0.25% agar with one drop of Tween in a volume of 10 mL/kg. Control animals were given the vehicle alone. Using a Smart System (Panlab, S. L., Spain) the traveled distance in cm is recorded for each mouse at 5-minutes intervals during a period of 30 minutes after dosing. The inhibition percentage of traveled distance of treated animals versus control animals (the first 5 minutes were discarded) was calculated.
SMILES,inhibition in vivo at 0.98 µmol/kg,inhibition in vivo at 98 µmol/kg
"CCN(CC)C(=O)Cc1c(-c2ccc(C)cc2)nc2ccc(Cl)nn12 [Example 1, 2-(6-Chloro-2-p-tolyl-imidazo[1,2-b]pyridazin-3-yl)-N,N-diethyl-acetamide]",27.6%,94.7%
"Cc1ccc(-c2nc3ccc(Cl)nn3c2CC(=O)N2CCCCC2)cc1 [Example 4, 2-(6-Chloro-2-p-tolyl-imidazo[1,2-b]pyridazin-3-yl)-1-piperidin-1-yl-ethanone]",38.4%,94.7%
"Cc1ccc(-c2nc3ccc(Cl)nn3c2CC(=O)N2CCOCC2)cc1 [Example 5, 2-(6-Chloro-2-p-tolyl-imidazo[1,2-b]pyridazin-3-yl)-1-morpholin-4-yl-ethanone]",41.1%,93.7%
"Cc1ccc(-c2nc3ccc(Cl)nn3c2CC(=O)N2CCCC2)cc1 [Example 6, 2-(6-Chloro-2-p-tolyl-imidazo[1,2-b]pyridazin-3-yl)-1-pyrrolidin-1-yl-ethanone]",51.9%,96.9%
"CCOc1ccc2nc(-c3ccc(Br)cc3)c(CC(=O)N3CCOCC3)n2n1 [Example 9, 2-[2-(4-Bromo-phenyl)-6-ethoxy-imidazo[1,2-b]pyridazin-3-yl]-1-morpholin-4-yl-ethanone]",19.9%,93.8%
"CCOc1ccc2nc(-c3ccc(Br)cc3)c(CC(=O)N3CCCCC3)n2n1 [Example 10, 2-[2-(4-Bromo-phenyl)-6-ethoxy-imidazo[1,2-b]pyridazin-3-yl]-1-piperidin-1-yl-ethanone]",29.5%,93.5%
"CCCCN(CCCC)C(=O)Cc1c(-c2ccc(Br)cc2)nc2ccc(OCC)nn12 [Example 11, 2-[2-(4-Bromo-phenyl)-6-ethoxy-imidazo[1,2-b]pyridazin-3-yl]-N,N-dibutyl-acetamide]",15.3%,79.8%
"CCCN(CCC)C(=O)Cc1c(-c2ccc(Br)cc2)nc2ccc(OCC)nn12 [Example 12, 2-[2-(4-Bromo-phenyl)-6-ethoxy-imidazo[1,2-b]pyridazin-3-yl]-N,N-dipropyl-acetamide]",15.1%,83.4%
"CCOc1ccc2nc(-c3ccc(Br)cc3)c(CC(=O)N(CC)CC)n2n1 [Example 13, 2-[2-(4-Bromo-phenyl)-6-ethoxy-imidazo[1,2-b]pyridazin-3-yl]-N,N-diethyl-acetamide]",15.1%,92.1%
"Cc1ccc2nc(-c3ccc(Br)cc3)c(CC(=O)N3CCOCC3)n2n1 [Example 14, 2-[2-(4-Bromo-phenyl)-6-methyl-imidazo[1,2-b]pyridazin-3-yl]-1-morpholin-4-yl-ethanone]",4.77%,95.6%
"CCCN(CCC)C(=O)Cc1c(-c2ccc(Br)cc2)nc2ccc(C)nn12 [Example 17, 2-[2-(4-Bromo-phenyl)-6-methyl-imidazo[1,2-b]pyridazin-3-yl]-N,N-dipropyl-acetamide]",9.91%,93.1%
"CCOc1ccc2nc(-c3ccc(Cl)cc3)c(CC(=O)N(CC)CC)n2n1 [Example 20, 2-[2-(4-Chloro-phenyl)-6-ethoxy-imidazo[1,2-b]pyridazin-3-yl]-N,N-diethyl-acetamide]",–,91.5%
"CCCCN(CCCC)C(=O)Cc1c(-c2ccc(Cl)cc2)nc2ccc(C)nn12 [Example 22, N,N-Dibutyl-2-[2-(4-chloro-phenyl)-6-methyl-imidazo[1,2-b]pyridazin-3-yl]-acetamide]",22.2%,88%
"CCCN(CCC)C(=O)Cc1c(-c2ccc(Cl)cc2)nc2ccc(OCC)nn12 [Example 23, 2-[2-(4-Chloro-phenyl)-6-ethoxy-imidazo[1,2-b]pyridazin-3-yl]-N,N-dipropyl-acetamide]",12.4%,91.7%
